Measurements as given in US11306073B2, “N-acylurea derivative and composition comprising same for prevention or treatment of cardiovascular disease” (KOREA UNIVERSITY RESEARCH AND BUSINESS FOUNDATION, priority 2016, dated 2022).

What was measured:
CHO/αIIbβ3 cell line = test: Screening of talin antagonist candidates: binding of CHO/αIIbβ3 cells to fibrinogen-coated plate (CCK-8 readout); assay type: cell-based; details: 0.2 mM of candidate; compared to a negative control; FIG. 2; read-out: inhibition of the binding between the CHO/αIIbβ3 cell line and fibrinogen
Procedure: Cells expressing platelet integrin αIIbβ3 were incubated with 0.2 mM of candidates, and the binding between the cells and fibrinogen was verified according to the experimental method shown in FIG. 1. In FIG. 2, 0% is a negative control and represents the degree to which cells adhere to a surface coated with bovine serum albumin (BSA) instead of fibrinogen, and 100% is a positive control and represents the degree to which cells adhere to fibrinogen in the absence of any candidate. The ability of candidates to inhibit fibrinogen binding was normalized to 100%, and the mean and standard error of three experiments are graphically shown.
Platelets bind to fibrinogen present in blood and produce thrombi. This binding is mediated by integrin αIIbβ3 present in the platelet cell membrane, and this integrin binds to fibrinogen after being activated by talin. In order to enable high-throughput efficacy testing by simplifying this procedure into a cell line-based experiment, integrin αIIbβ3 was first stably expressed in the CHO cell line using lentivirus, thereby constructing a CHO/αIIbβ3 cell line. The constructed cell line was cultured in a fibrinogen-coated 96-well plate for 1 hour and washed, after which the amount of remaining cells was measured to evaluate the efficacy of a talin antagonist candidate. In this procedure, in order to measure the relative amount of the CHO/αIIbβ3 cell line remaining in the well due to binding to fibrinogen, a cell counting kit-8 (CCK-8) was used to measure the activity of dehydrogenase present in the remaining cells. When the activity of dehydrogenase appeared due to the presence of the cells, the color of CCK-8 changed from yellow to orange (FIG. 1). To measure the degree to which the color changed to orange, the absorbance at a wavelength of 450 nm was measured with a plate reader. This enabled easy, fast and reliable high-throughput screening.
To screen talin antagonist candidates, inhibition of the binding affinity between the CHO/αIIbβ3 cell line and fibrinogen was examined by the above-described efficacy testing method.
As a result, it was shown that compounds, including KCH-1420, KCH-1424, KCH-1510, KCH-1511, KCH-1512, KCH-1513, KCH-1516, KCH-1518, KCH-1521, KCH-1523, KCH-1526, KCH-1529, KCH-1530, and KCH-1542 inhibited the binding between the CHO/αIIbβ3 cell line and fibrinogen by at least 80% compared to a negative control (FIG. 2). […] In FIG. 3, like FIG. 2, cells expressing platelet integrin αIIbβ3 were incubated with varying concentrations of a candidate, and the binding between the cells and fibrinogen was examined. Cell adhesion on the Y-axis is the relative degree of cell-fibrinogen binding.

mouse blood platelets = test: Platelet aggregation inhibitory effect using mouse platelets activated by thrombin; assay type: cell-based; details: 0.2 mM compound, FIG. 5
Procedure: It is well known that platelets bind to fibrinogen in blood and form thrombi, which leads to the contraction of intracellular skeletal muscle due to signaling after the binding between activated integrin a αIIbβ3 and fibrinogen. To achieve this thrombus formation in vitro, mouse blood platelets were isolated and thrombin known as a platelet activator was added thereto. As a result, as shown in the left photograph of FIG. 5, the platelets were aggregated. However, when platelets were treated with thrombin in combination with KCH-1513 or KCH-1521, it was observed that platelet aggregation that was increased by thrombin decreased when 0.2 mM of KCH-1513 (middle photograph) or the same concentration of KCH-1521 (right photograph) was added.

[1] = biological target: T1, talin protein (6×His-tagged F2F3 protein) (Homo sapiens, UniProt Q9Y490); test: Binding affinity between talin protein and candidate by surface plasmon resonance; details: SPR, talin F2F3 immobilized on sensor chip; FIG. 4; read-out: affinity constant
T1 construct: 6×His-tagged F2F3 protein containing F3 was isolated and purified; 6×His; made in house
Procedure: To measure the binding affinity between the talin protein and a talin antagonist candidate, surface plasmon resonance spectroscopy was used. Specifically, a talin antagonist candidate was added to the talin protein immobilized on a sensor chip, and the affinity constant between the two substances was measured by surface plasmon resonance (hereinafter referred to as ‘SPR’) spectrometry.
Talin is divided into an N-terminal head domain and a C-terminal rod domain, and the head domain is further divided into four subdomains, F0, F1, F2 and F3. Among them, F3 is known as an integrin binding site. Thus, 6×His-tagged F2F3 protein containing F3 was isolated and purified. As a sensor chip for immobilizing the talin protein, HTEPBE10PO1 (Biorad) was used. SPR was measured using ProteON™ XPR36 (Biorad).

T1 sequence (Q9Y490 196-405 limits assumed): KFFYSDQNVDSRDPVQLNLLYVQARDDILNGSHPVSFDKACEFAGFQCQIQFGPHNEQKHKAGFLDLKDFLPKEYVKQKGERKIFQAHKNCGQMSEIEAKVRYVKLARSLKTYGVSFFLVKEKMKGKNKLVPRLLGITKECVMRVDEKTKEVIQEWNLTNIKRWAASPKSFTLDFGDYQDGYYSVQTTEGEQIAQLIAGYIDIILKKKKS

With `Cc1cccc(OCC(=O)NC(=O)Nc2ccccc2F)c1C` [KCH-1420, 2-(2,3-dimethylphenoxy)-N-((2-fluorophenyl)carbamoyl)acetamide] the inhibition at 200 µM (CHO/αIIbβ3 cell line) was no less than 80%.
`CC(C)(C)OC(=O)N1CCN(CC(=O)NC(=O)Nc2ccccc2F)CC1` [KCH-1424, tert-butyl 4-(2-(3-(2-fluorophenyl)ureido)-2-oxoethyl)piperazine-1-carboxylate] was tested, and the inhibition at 200 µM (CHO/αIIbβ3 cell line) was no less than 80%.
Work on `COc1cc(NC(=O)NC(=O)Cn2nnc(-c3ccccc3)n2)ccc1Br` [KCH-1510, N-((4-bromo-3-methoxyphenyl)carbamoyl)-2-(5-phenyl-2H-tetrazol-2-yl)acetamide] yielded an inhibition at 200 µM (CHO/αIIbβ3 cell line) of no less than 80%.
`O=C(Cn1nnc(-c2ccccc2)n1)NC(=O)Nc1ccc(Oc2ccccc2)cc1` [KCH-1511, N-((4-phenoxyphenyl)carbamoyl)-2-(5-phenyl-2H-tetrazol-2-yl)acetamide] was tested, and the inhibition at 200 µM (CHO/αIIbβ3 cell line) was no less than 80%.
`COc1ccc(CNC(=O)NC(=O)Cn2nnc(-c3ccccc3)n2)cc1` [KCH-1512, N-((4-methoxybenzyl)carbamoyl)-2-(5-phenyl-2H-tetrazol-2-yl)acetamide] was tested, and the inhibition at 200 µM (CHO/αIIbβ3 cell line) was no less than 80%.
For `O=C(Cn1nnc(-c2ccccc2)n1)NC(=O)NCCC1=CNC2C=CC=CC12` (stereo not drawn) [KCH-1513, N-((2-(3a,7a-dihydro-1H-indol-3-yl)ethyl)carbamoyl)-2-(5-phenyl-2H-tetrazol-2-yl)acetamide], the inhibition at 200 µM (CHO/αIIbβ3 cell line) was no less than 80%, the “inhibition of thrombin-induced platelet aggregation” value (mouse blood platelets) was “significantly inhibit platelet aggregation” and the Kd [1] was 9.33 mM.
In the case of `O=C(Cn1nnc(-c2ccccc2)n1)NC(=O)Nc1ccccc1F` [KCH-1516, N-((2-fluorophenyl)carbamoyl)-2-(5-phenyl-2H-tetrazol-2-yl)acetamide], the inhibition at 200 µM (CHO/αIIbβ3 cell line) is reported as no less than 80%.
`COc1cc(NC(=O)NC(=O)COc2ccc3c(c2)OCO3)ccc1Br` [KCH-1518, 2-(benzo[d][1,3]dioxo1-5-yloxy)-N-((4-bromo-3-methoxyphenyl)carbamoyl) acetamide] showed an inhibition at 200 µM (CHO/αIIbβ3 cell line) of no less than 80%.
With `O=C(COc1ccc2c(c1)OCO2)NC(=O)NCCc1c[nH]c2ccccc12` [KCH-1521] the inhibition at 200 µM (CHO/αIIbβ3 cell line) was no less than 80%, the “inhibition of thrombin-induced platelet aggregation” value (mouse blood platelets) was “significantly inhibit platelet aggregation” and the Kd [1] was 0.271 mM.
`O=C(COc1ccc2c(c1)OCO2)NC(=O)Nc1ccc(OCc2ccccc2)cc1` [KCH-1523, 2-(benzo[d][1,3]dioxol-5-yloxy)-N-((4-(benzyloxy)phenyl)carbamoyl) acetamide] gave an inhibition at 200 µM (CHO/αIIbβ3 cell line) of no less than 80%.
Compound `COc1cc(NC(=O)NC(=O)COc2ccccc2OC)ccc1Br` [KCH-1526, N-((4-bromo-3-methoxyphenyl)carbamoyl)-2-(2-methoxyphenoxy)acetamide] has an inhibition at 200 µM (CHO/αIIbβ3 cell line) of no less than 80%.
Work on `COc1ccccc1OCC(=O)NC(=O)NCCc1c[nH]c2ccccc12` [KCH-1529, N-((2-(1H-indol-3-yl)ethyl)carbamoyl)-2-(2-methoxyphenoxy)acetamide] yielded an inhibition at 200 µM (CHO/αIIbβ3 cell line) of no less than 80%.
For `COc1ccc(NC(=O)NC(=O)COc2ccccc2OC)c(OC)c1` [KCH-1530, N-((2,4-dimethoxyphenyl)carbamoyl)-2-(2-methoxyphenoxy)acetamide], the inhibition at 200 µM (CHO/αIIbβ3 cell line) was no less than 80%.
`COc1ccc(NC(=O)NC(=O)COc2cccc(Br)c2)c(OC)c1` [KCH-1542, 2-(3-bromophenoxy)-N-((2,4-dimethoxyphenyl)carbamoyl)acetamide] gave an inhibition at 200 µM (CHO/αIIbβ3 cell line) of no less than 80%.
